Test results from US20170251655A2, “COMPOSITIONS AND METHODS FOR CAPTURING, KILLING OR REPELLING BED BUGS” (OLFACTOR LABORATORIES, INC., priority 2014, published 2017).
Counter-ions that a name gives are not always drawn.

Columns and labels:
C. lectularius = settings: population of C. lectularius isolated in Arkansas; cited from earlier work
bed bugs [1] = settings: study performed in Africa; cited from earlier work
[2] = test system: bed bug (Cimex lectularius); experiment: Bed bug repellency assay (filter paper harborage, petri dish); type: in vivo; settings: for % Repellency / Repellency Category: individual compounds; for % Repellency: 10 microliters compound + 90 microliters isopropyl alcohol on filter paper tent, 10 bed bugs, 5 minutes, vs control; for Repellency Category: category from % repellency; for Ind % Rep (percent repellency of the individual compound): values obtained in Example 1 for the individual compound of a blend
Procedure: Compounds and blends of the present invention were assayed for their ability to modify bed bug (Cimex lectularius) behavior using a bed bug repellency assay. This assay takes advantage of the bed bug's natural instinct to seek harborage. Two petri dishes were obtained and the inner areas of each were sanded down (leaving the perimeter smooth.) Talc was applied on the perimeter and on the inside walls of the petri dishes with a small paint brush to prevent bed bugs from escaping. A cut off top portion of a plastic cup was placed upside down in the center of one petri dish to create a holding arena for the bed bugs. A large plastic secondary container was gathered and a paper towel was laid down inside the bottom. The petri dish was then placed inside and ten bed bugs were placed inside the cut off portion of the cup.
Next, two pieces of filter paper were cut down the middle to yield 4 equally sized halves. Three pieces were placed inside a glass dish […] and the remaining piece was placed in a separate dish. All four pieces were folded down the middle to create a “tent” or “harborage” when laid such that the folded crease faced up. 100 microliters of isopropyl alcohol was pipetted into three pieces of filter paper (all housed in the first glass dish.) In a separate 4 ml vial, 90 microliters of isopropyl alcohol was combined and vortexed with 10 microliters of the compound or compound combination being tested. 100 microliters of this solution [comprising a total of […] of compound(s)] was pipetted onto the filter paper in the separate dish. All filter papers were then allowed to dry. Once dry, experiments were conducted first with two filter paper halves comprising only the isopropyl alcohol (control experiment) and then with the remaining filter paper halves [one with only isopropyl alcohol and one comprising the test compound(s).] Filter paper halves were placed on opposing sides of experimental petri dishes and bed bugs were allowed to move freely within the dishes by removal of the plastic cup top. Movement was allowed to continue for 5 minutes before the number bed bugs beneath each filter paper tent was recorded.

[3] = test system: bed bug (Cimex lectularius); experiment: Bed bug threshold assay (mouse bait, treated filter paper on acrylic rod bridges); type: in vivo; settings: 90 μl isopropyl alcohol + 10 μl testing compound on filter paper; bed bugs crossing treated vs control; mouse as bait; 10 minutes
Procedure: Compounds and blends of the present invention were assayed for their ability to modify bed bug (Cimex lectularius) behavior using a bed bug threshold assay. Three interceptors were laid side by side and acrylic rods were stuck on to the sides with putty so that they went from interceptor to interceptor forming bridges. Paper towels sections of 6 inches by 2 inches were placed so that they hung off of the ends of the acrylic rods to form harborage for bed bugs. Next, 125 mm pieces of Whatman Filter paper treated either with the compound of interest (90 μl isopropyl alcohol+10 μl testing compound) or with control solution of 100 μl isopropyl alcohol were stuck to the top of the acrylic rods with the compound impregnated filter on one rod and control impregnated filter on the other. In the middle interceptor a mouse was placed as bait for the bed bugs. In either outside interceptors 10 bed bugs each were placed in holding dishes, allowed to equilibrate for 10 minutes then released on the harborage. Video footage at 1 second time intervals was obtained for 10 minutes then analyzed for bed bug movements. Repellency of any given compound or blend was calculated by counting how many bed bugs traversed the acrylic rods across either the treated or the control Whatman filter paper. Percent repellency was determined by comparing the number of bed bugs which crossed the treated Whatman filter paper to the number of bed bugs which crossed the control Whatman filter paper.

bed bugs [4] = experiment: Bed bug luring assay (baited cup, overnight); type: in vivo; settings: for Attractant Category: category from attractant activity value; for Att Act (attractant activity value): percentage of 10 bed bugs in baited cup, cottonball with 100 microliters compound or combination solution, overnight, dark
Procedure: Assays were conducted to measure the ability of compounds and compound combinations to attract bed bugs. A testing arena habitat comprising a small plastic container was placed inside of a larger, secondary container. The top half inch was removed from two bathroom sized plastic cups and each cup was placed on opposite sides of the testing arena habitat, one inch away from the wall. Each outer part of the cup was textured using sandpaper, as bed bugs cannot climb smooth surfaces. A paper towel was used to line the floor of the testing arena habitat. The top, removed portion of one of the cups was placed mouth side down in the center of the arena. In one of the cups, a cottonball was placed and treated with 100 microliters of compound or compound combination solution [comprising a total of […] of compound(s).] Ten bed bugs were placed within the center cut off cup top and the testing arena habitat was covered and placed within a dark, climate controlled room overnight.
The next day, the number of bed bugs that crawled into the baited cup were recorded and the attractant activity value was calculated. As used herein, the attractant activity value represents the percentage of bugs that crawled into the baited cup as compared to the total number of bed bugs. In the Table, “Att Act” refers to attract activity value.

[5] = test system: bed bug (Cimex lectularius); experiment: Bed bug repellency assay (filter paper harborage, petri dish); type: in vivo; settings: statement in the description, test not named

Clc1ccc(C(c2ccc(Cl)cc2)C(Cl)(Cl)Cl)cc1 [DDT, dichlorodiphenyltrichloroethane]
LD50 (C. lectularius): 100,000 ppm | bed bug activity level after treatment (bed bugs [1]): higher activity level

methoxy cinnamic aldehyde [BBC046]
% Repellency [2]: 23% | Repellency Category [2]: Mild (Compounds with a percent repellency value of 20-40% were categorized as mild repellents) | % Repellency [3]: 92%

COC(=O)CCC(C)=O [BBC049, methyl levulinate]
Attractant Category (bed bugs [4]): Mild (Compounds or blends with an attractant activity value of 10-20% were categorized as mild attractants) | Att Act (attractant activity value) (bed bugs [4]): 10%

CC(=O)/C=C/C=C(C)C [BBC014, methyl heptadienone]
% Repellency [2]: 87% | Repellency Category [2]: Very Strong (compounds with a percent repellency value of 80-100% were categorized as very strong repellents) | % Repellency [3]: 64%

C/C=C(\C)C=O [BBC062, trans-2-methyl-2-butenal]
Ind % Rep (percent repellency of the individual compound) [2]: 0%

O=CCCc1ccccc1 [BBC005, phenyl propyl aldehyde]
% Repellency [2]: 100% | Repellency Category [2]: Very Strong (compounds with a percent repellency value of 80-100% were categorized as very strong repellents) | % Repellency [3]: 74%

CSC(C)=O [BBC060, methanethiol acetate]
Attractant Category (bed bugs [4]): Moderate (Compounds or blends with an attractant activity value of 20-40% were categorized as moderate attractants) | Att Act (attractant activity value) (bed bugs [4]): 20%

CC1=C2CCC(C)CC2OC1=O (stereo not drawn) [BBC054, menthalactone]
% Repellency [3]: 95%

C/C=C/C(=O)OC [BBC039, methyl crotonate]
Attractant Category (bed bugs [4]): Moderate (Compounds or blends with an attractant activity value of 20-40% were categorized as moderate attractants) | Att Act (attractant activity value) (bed bugs [4]): 20%

CCC(=O)OCCC(C)C [BBC051, isoamyl propionate]
Attractant Category (bed bugs [4]): Mild (Compounds or blends with an attractant activity value of 10-20% were categorized as mild attractants) | Att Act (attractant activity value) (bed bugs [4]): 10%

COc1nccnc1C [BBC067, 2-methoxy-3-methylpyrazine]
Attractant Category (bed bugs [4]): Mild (Compounds or blends with an attractant activity value of 10-20% were categorized as mild attractants) | Att Act (attractant activity value) (bed bugs [4]): 10%

ultrazur [BBC016]
% Repellency [2]: 84% | Repellency Category [2]: Very Strong (compounds with a percent repellency value of 80-100% were categorized as very strong repellents) | % Repellency [3]: 64%

CCCCCCOC=O [BBC035, hexyl formate]
Attractant Category (bed bugs [4]): Moderate (Compounds or blends with an attractant activity value of 20-40% were categorized as moderate attractants) | Att Act (attractant activity value) (bed bugs [4]): 30%

CCCC1CCC(=O)O1 (stereo not drawn) [BBC021, gamma-heptalactone]
% Repellency [2]: 71% | Repellency Category [2]: Strong (Compounds with a percent repellency value of 60-80% were categorized as strong repellents) | Ind % Rep (percent repellency of the individual compound) [2]: 71% | % Repellency [3]: 91%

COC(Cc1ccccc1)OC [BBC012, phenylacetaldehyde dimethyl acetate]
% Repellency [2]: 100% | Repellency Category [2]: Very Strong (compounds with a percent repellency value of 80-100% were categorized as very strong repellents)

CCCC(C)=O [BBC065, 2-pentanone]
Attractant Category (bed bugs [4]): Moderate (Compounds or blends with an attractant activity value of 20-40% were categorized as moderate attractants) | Att Act (attractant activity value) (bed bugs [4]): 30%

CCCC(=O)CCC [BBC057, heptanone-4]
% Repellency [3]: 38%

O=C1CCCC1 [BBC069, cyclopentanone]
Attractant Category (bed bugs [4]): Strong (Compounds or blends with an attractant activity value of 40-60% were categorized as strong attractants) | Att Act (attractant activity value) (bed bugs [4]): 50%

C=CCc1ccc(O)c(OC)c1 [BBC002, eugenol]
bed bug repellency, in words [5]: repel bed bugs

COc1ccccc1O [BBC011, guaiacol]
bed bug repellency, in words [5]: repel bed bugs

CCCOC=O [BBC070, propyl formate]
Attractant Category (bed bugs [4]): Moderate (Compounds or blends with an attractant activity value of 20-40% were categorized as moderate attractants) | Att Act (attractant activity value) (bed bugs [4]): 30%

2-methoxy-3(5or6) isopropylpyrazine [BBC006]
% Repellency [2]: 100% | Repellency Category [2]: Very Strong (compounds with a percent repellency value of 80-100% were categorized as very strong repellents) | % Repellency [3]: 100%

N#C/C=C/c1ccccc1 [BBC029, cinnamyl nitrile]
% Repellency [2]: 56% | Repellency Category [2]: Moderate (Compounds with a percent repellency value of 40-60% were categorized as moderate repellents) | Ind % Rep (percent repellency of the individual compound) [2]: 56% | % Repellency [3]: 92%

COC(/C=C/c1ccccc1)OC [BBC013, cinnamic aldehyde dimethyl acetal]
% Repellency [2]: 90% | Repellency Category [2]: Very Strong (compounds with a percent repellency value of 80-100% were categorized as very strong repellents)

COc1cnccn1 [BBC047, 2-methoxypyrazine]
Attractant Category (bed bugs [4]): Moderate (Compounds or blends with an attractant activity value of 20-40% were categorized as moderate attractants) | Att Act (attractant activity value) (bed bugs [4]): 30%
